Several values for one entry are separate records, joined by “and”; a condition that tells them apart may be missing. Equal values may be shown once. Inconclusive results and toxic doses are left out. No stated cut-off is given here; in the data, active means T/C of 150% or more; inactive means T/C below 125%.
System: L1210 leukemia ip in BDF1 mice, survival T/C
Test: NCI In Vivo Anticancer Drug Screen. Data for tumor model L1210 Leukemia (intraperitoneal) in B6D2F1 (BDF1) mice
Settings: endpoint: mean survival time, higher = longer survival
Summary of the method: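 Value reflects the ratio of survival in compound-treated mice to survival in vehicle-treated controls, with both groups carrying the same transplanted tumor.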

[1] = dose: 12.5 mg/kg/injection, schedule: Q01DX009 (ip), vehicle: saline with Tween-80
[2] = dose: 50.0 mg/kg/injection, schedule: Q01DX009 (ip), vehicle: saline with Tween-80
[3] = dose: 100.0 mg/kg/injection, schedule: Q01DX001 (ip), vehicle: saline with Tween-80
[4] = dose: 100.0 mg/kg/injection, schedule: Q04DX003 (ip), vehicle: saline with Tween-80
[5] = dose: 200.0 mg/kg/injection, schedule: Q01DX001 (ip), vehicle: saline with Tween-80
[6] = dose: 200.0 mg/kg/injection, schedule: Q04DX003 (ip), vehicle: saline with Tween-80
[7] = dose: 100.0 mg/kg/injection, schedule: Q04DX002 (ip), vehicle: Klucel (hydroxypropylcellulose) (HPC)
[8] = dose: 200.0 mg/kg/injection, schedule: Q04DX002 (ip), vehicle: Klucel (hydroxypropylcellulose) (HPC)
[9] = dose: 400.0 mg/kg/injection, schedule: Q04DX002 (ip), vehicle: Klucel (hydroxypropylcellulose) (HPC)
[10] = dose: 25.0 mg/kg/injection, schedule: Q01DX009 (ip), vehicle: Klucel (hydroxypropylcellulose) (HPC)
[11] = dose: 400.0 mg/kg/injection, schedule: Q04DX003 (ip), vehicle: saline with Tween-80
[12] = dose: 100.0 mg/kg/injection, schedule: Q01DX009 (ip), vehicle: saline with Tween-80
[13] = dose: 200.0 mg/kg/injection, schedule: Q01DX009 (ip), vehicle: saline with Tween-80
[14] = dose: 100.0 mg/kg/injection, schedule: Q04DX003 (ip), vehicle: Klucel (hydroxypropylcellulose) (HPC)
[15] = dose: 200.0 mg/kg/injection, schedule: Q04DX003 (ip), vehicle: Klucel (hydroxypropylcellulose) (HPC)
[16] = dose: 400.0 mg/kg/injection, schedule: Q04DX003 (ip), vehicle: Klucel (hydroxypropylcellulose) (HPC)
[17] = dose: 100.0 mg/kg/injection, schedule: Q04DX002 (ip), vehicle: saline
[18] = dose: 200.0 mg/kg/injection, schedule: Q04DX002 (ip), vehicle: saline
[19] = dose: 400.0 mg/kg/injection, schedule: Q04DX002 (ip), vehicle: saline
[20] = dose: 100.0 mg/kg/injection, schedule: Q01DX001 (ip), vehicle: Klucel (hydroxypropylcellulose) (HPC)
[21] = dose: 100.0 mg/kg/injection, schedule: Q01DX009 (ip), vehicle: Klucel (hydroxypropylcellulose) (HPC)
[22] = dose: 200.0 mg/kg/injection, schedule: Q01DX001 (ip), vehicle: Klucel (hydroxypropylcellulose) (HPC)
[23] = dose: 200.0 mg/kg/injection, schedule: Q01DX009 (ip), vehicle: Klucel (hydroxypropylcellulose) (HPC)
[24] = dose: 400.0 mg/kg/injection, schedule: Q01DX001 (ip), vehicle: Klucel (hydroxypropylcellulose) (HPC)
[25] = dose: 100.0 mg/kg/injection, schedule: Q04DX003 (ip), vehicle: saline
[26] = dose: 200.0 mg/kg/injection, schedule: Q04DX003 (ip), vehicle: saline
[27] = dose: 400.0 mg/kg/injection, schedule: Q04DX003 (ip), vehicle: saline

Measured: T/C

CN(C)/N=C\c1ccccc1Cl
inactive: [1] 91 % of control | dose: 25.0 mg/kg/injection, schedule: Q01DX009 (ip), vehicle: saline with Tween-80 102 % of control | [2] 100 % of control and 101 % of control | [3] 100 % of control | [4] 101 % of control | [5] 96 % of control | [6] 98 % of control | dose: 400.0 mg/kg/injection, schedule: Q01DX001 (ip), vehicle: saline with Tween-80 117 % of control

O=P(c1cccc(C(F)(F)F)c1)(c1cccc(C(F)(F)F)c1)c1cccc(C(F)(F)F)c1.O=P(c1cccc(C(F)(F)F)c1)(c1cccc(C(F)(F)F)c1)c1cccc(C(F)(F)F)c1.[Cl][Sn]([Cl])([Cl])[Cl]
inactive: [7] 100 % of control | [8] 96 % of control | [9] 86 % of control

Clc1c(Cl)c([O][Sn]([c]2ccccc2)([c]2ccccc2)[c]2ccccc2)c(Cl)c(Cl)c1[O][Sn]([c]1ccccc1)([c]1ccccc1)[c]1ccccc1
inactive: dose: 3.12 mg/kg/injection, schedule: Q01DX009 (ip), vehicle: Klucel (hydroxypropylcellulose) (HPC) 108 % of control | dose: 6.25 mg/kg/injection, schedule: Q01DX009 (ip), vehicle: Klucel (hydroxypropylcellulose) (HPC) 91 % of control | [10] 90 % of control

CCC(C)C(C(=O)O)c1ccccc1 (stereo unspecified)
inactive: [4] 100 % of control | [6] 98 % of control | [11] 94 % of control

CC(C)=NNC(=O)c1ccccn1
inactive: dose: 50.0 mg/kg/injection, schedule: Q01DX001 (ip), vehicle: carboxymethylcellulose (CMC) 101 % of control | dose: 50.0 mg/kg/injection, schedule: Q01DX009 (ip), vehicle: carboxymethylcellulose (CMC) 104 % of control | dose: 50.0 mg/kg/injection, schedule: Q04DX003 (ip), vehicle: carboxymethylcellulose (CMC) 100 % of control | dose: 100.0 mg/kg/injection, schedule: Q01DX001 (ip), vehicle: carboxymethylcellulose (CMC) 104 % of control | dose: 100.0 mg/kg/injection, schedule: Q01DX009 (ip), vehicle: carboxymethylcellulose (CMC) 104 % of control and 106 % of control | dose: 100.0 mg/kg/injection, schedule: Q04DX003 (ip), vehicle: carboxymethylcellulose (CMC) 115 % of control | dose: 200.0 mg/kg/injection, schedule: Q01DX001 (ip), vehicle: carboxymethylcellulose (CMC) 113 % of control

CN(C)C(=S)N=Nc1ccccc1
inactive: [2] 92 % of control | dose: 50.0 mg/kg/injection, schedule: Q01DX009 (ip), vehicle: saline 97 % of control | [12] 100 % of control | dose: 100.0 mg/kg/injection, schedule: Q01DX009 (ip), vehicle: saline 100 % of control | [13] 100 % of control | dose: 200.0 mg/kg/injection, schedule: Q01DX009 (ip), vehicle: saline 107 % of control

CS(=O)(=O)c1nc(Cl)nc(S(C)(=O)=O)c1Cl
inactive: [14] 110 % of control | [15] 107 % of control | [16] 104 % of control

COc1cccc2c1C(=O)c1c(O)c3c(c(O)c1C2=O)CC(O)(C(C)=O)CC3OC1CC(NC(=S)Nc2ccccc2)C(O)C(C)O1 (stereo unspecified)
inactive: dose: 2.0 mg/kg/injection, schedule: Q04DX003 (ip), vehicle: water 105 % of control | dose: 3.12 mg/kg/injection, schedule: Q01DX009 (ip), vehicle: saline with Tween-80 117 % of control | dose: 4.0 mg/kg/injection, schedule: Q04DX003 (ip), vehicle: water 111 % of control | dose: 6.25 mg/kg/injection, schedule: Q01DX009 (ip), vehicle: saline with Tween-80 122 % of control | dose: 8.0 mg/kg/injection, schedule: Q04DX003 (ip), vehicle: water 106 % of control | [1] 123 % of control | dose: 16.0 mg/kg/injection, schedule: Q04DX003 (ip), vehicle: water 120 % of control and 123 % of control | dose: 32.0 mg/kg/injection, schedule: Q04DX003 (ip), vehicle: water 123 % of control | dose: 64.0 mg/kg/injection, schedule: Q04DX003 (ip), vehicle: water 118 % of control | dose: 125.0 micrograms/kg/injection, schedule: Q04DX003 (ip), vehicle: water 98 % of control | dose: 250.0 micrograms/kg/injection, schedule: Q04DX003 (ip), vehicle: water 103 % of control | dose: 500.0 micrograms/kg/injection, schedule: Q04DX003 (ip), vehicle: water 107 % of control | dose: 1000.0 micrograms/kg/injection, schedule: Q04DX003 (ip), vehicle: water 102 % of control | dose: 2000.0 micrograms/kg/injection, schedule: Q04DX003 (ip), vehicle: water 104 % of control

Cc1cccc(OCC2CO2)c1 (stereo unspecified)
inactive: [17] 87 % of control | [18] 102 % of control | [19] 105 % of control

O=C(NC1CCCCC1)C1COc2ccccc2O1 (stereo unspecified)
inactive: [20] 98 % of control | [21] 95 % of control | [22] 108 % of control | [23] 93 % of control | [24] 98 % of control | dose: 400.0 mg/kg/injection, schedule: Q01DX009 (ip), vehicle: Klucel (hydroxypropylcellulose) (HPC) 97 % of control

CC(C)(SCCc1ccccn1)C(N)C(=O)O (stereo unspecified)
inactive: [20] 102 % of control | [22] 107 % of control | [24] 96 % of control

CC(O)CN1CCOCC1 (stereo unspecified)
inactive: [25] 100 % of control | [26] 97 % of control | [27] 107 % of control

N#Cc1cscc1C#N
inactive: dose: 12.5 mg/kg/injection, schedule: Q01DX009 (ip), vehicle: Klucel (hydroxypropylcellulose) (HPC) 96 % of control | [10] 92 % of control | dose: 50.0 mg/kg/injection, schedule: Q01DX009 (ip), vehicle: Klucel (hydroxypropylcellulose) (HPC) 97 % of control | [21] 88 % of control | [14] 111 % of control | [15] 100 % of control | [16] 104 % of control

CC1(C)CCC2=C(C1)Nc1ccc(Cl)cc1NC2c1ccc([N+](=O)[O-])cc1 (stereo unspecified)
inactive: [7] 117 % of control | [8] 109 % of control | [9] 98 % of control

N/N=C/C=N/Nc1cnccn1
inactive: [21] 106 % of control | [23] 86 % of control

N#CC1(OC2OC(CO)C(O)C(O)C2O)C=CC(O)C1O (stereo unspecified)
inactive: [25] 98 % of control | [26] 105 % of control | [27] 96 % of control

C=C(Cl)CC1(C(=O)OCC)CCN(S(=O)(=O)c2ccc(C)cc2)c2ccccc2C1=O (stereo unspecified)
inactive: [14] 94 % of control | [15] 98 % of control | [16] 88 % of control

Nc1nc(N)c2c(n1)CCCC2
inactive: dose: 12.5 mg/kg/injection, schedule: Q04DX003 (ip), vehicle: saline with Tween-80 95 % of control | dose: 25.0 mg/kg/injection, schedule: Q04DX003 (ip), vehicle: saline with Tween-80 93 % of control | dose: 50.0 mg/kg/injection, schedule: Q04DX003 (ip), vehicle: saline with Tween-80 91 % of control

CC(N)CN (stereo unspecified)
inactive: [17] 100 % of control | [18] 89 % of control | [19] 103 % of control

O=C1c2ccccc2C(=O)N1c1ccccc1O
inactive: [7] 98 % of control | [8] 102 % of control | [9] 106 % of control

CCCCCCC(C)O[Si](C)c1ccccc1C (stereo unspecified)
inactive: [12] 98 % of control | [4] 98 % of control | [13] 100 % of control | [6] 98 % of control | dose: 400.0 mg/kg/injection, schedule: Q01DX009 (ip), vehicle: saline with Tween-80 111 % of control | [11] 98 % of control

CCOC(=O)C1C(=O)C(C(=O)Nc2ccccc2)C(=O)C(C(=O)OCC)C1c1ccc(OC)c(OC)c1OC (stereo unspecified)
inactive: dose: 50.0 mg/kg/injection, schedule: Q01DX001 (ip), vehicle: saline with Tween-80 96 % of control | [3] 100 % of control | [5] 94 % of control

CC(C)c1ccc(N=Nc2ccc(N(C)C)cc2)cc1
inactive: [4] 95 % of control | [6] 95 % of control | [11] 94 % of control
